Measurements taken from publication PMC6270420, “Antibacterial Activity of Salicylanilide 4-(Trifluoromethyl)benzoates” (Molecules, 2013).
Converted amounts (≈) assume the structure as drawn. Read-outs that look alike come from different tables or passages of the source.

Legend:
Mtb. Praha 131 (XDR-TB) = assay: microbe, parasite or virus in culture; assay type: cell-based; conditions: Mycobacterium tuberculosis, read-out: MIC Mtb. Praha 131 (XDR-TB)
[1] = system: Mycobacterium avium 330/88; assay: Antimycobacterial MIC micromethod; assay type: cell-based
Mtb. 53/2009 = assay: microbe, parasite or virus in culture; assay type: cell-based; conditions: Mycobacterium tuberculosis, read-out: MIC Mtb. 53/2009
Mtb. 234/2005 = assay: microbe, parasite or virus in culture; assay type: cell-based; conditions: Mycobacterium tuberculosis, read-out: MIC Mtb. 234/2005
[2] = system: Mycobacterium tuberculosis 331/88 (H37Rv); assay: Antimycobacterial MIC micromethod, Šula's medium; assay type: cell-based; conditions: read-out: MIC Mtb. 331/88
HepG2 cells = assay: Cytotoxicity evaluation (CellTiter 96 MTS); assay type: cell-based, human; conditions: Homo sapiens, HepG2, 24 h, read-out: IC50 HepG2
Experimental: Seven esters and their parent salicylanilides with the most robust antimicrobial activity were tested for cytotoxicity in the human hepatocellular liver carcinoma cell line HepG2 (passages 21–24; ECACC, Salisbury, UK) using a standard colorimetric method measuring a tetrazolium salt reduction (CellTiter(R) 96 AQueous One Solution Assay, Promega G3580, Madison, WI, USA).
The cells were routinely cultured in Minimum Essentials Eagle Medium (Sigma-Aldrich, Darmstadt, Germany) supplemented with 10% foetal bovine serum (PAA; Biotech, Prague, Czech Republic), 1% of L-glutamine solution (Sigma-Aldrich), and non-essential amino acids solution (Sigma-Aldrich) in a humidified atmosphere containing 5% CO2 at 37 °C. For subculturing, the cells were harvested after trypsin/EDTA (Sigma-Aldrich) treatment at 37 °C. The cells treated with the tested substances were used as experimental groups. Untreated HepG2 cells were used as control groups.
The cells were seeded in density 1 × 10^4 cells per well in a 96-well plate with microscopic control. Next day, the cells were treated with each of the tested substances. […] The most of the tested compounds were prepared in incubation concentrations of 0.01–20 µM in triplicates. 4-(Trifluoromethyl)benzoic acid was applied in the concentrations of 10–4,000 µM in triplicates. The following types of controls were included: determination of 100% viability and 0% viability (the cells treated by 10% DMSO), no cell control and vehiculum controls. These checking samples were prepared in triplicates.
The treated cells were incubated together with controls at 37 °C for 24 h in 5% CO2 atmosphere. After this time reagent from the kit CellTiter 96 AQueous One Solution Cell Proliferation Assay was added. The CellTiter 96 assay is based on the reduction of tetrazolium salt MTS [3-(4,5-dimethylthiazol-2-yl)-5-(3-carboxymethoxyphenyl)-2-(4-sulfophenyl)-2H-tetrazolium] to water-soluble formazan dye by metabolically active cells. The reduction of the reagent is attributed to availability of NADH or NADPH. The decline in levels of these metabolically important compounds in the cell causes that the production of formazan is reduced. The tested plate was incubated for 2 h at 37 °C and 5% CO2 and after this time, the absorbance was recorded at 490 nm using a 96-well plate reader (TECAN, Infinite M200, Grödig, Austria).
The results were expressed as inhibitory concentration which is necessary to inhibit cell viability to 50% from the maximal (control) viability (IC50). A standard toxicological parameter IC50 was calculated in each of the tested substances using GraphPad Prism software (version 5.02; GraphPad Software Inc., San Diego, CA, USA).

[3] = target: T1, mycobacterial isocitrate lyase (ICL1, Rv0467) (Mycobacterium tuberculosis, UniProt P9WKK7); assay: Isocitrate lyase inhibition assay (ICL1); assay type: biochemical, Mycobacterium tuberculosis H37Rv; conditions: 10 μmol/L; read-out: % ICL inhibition at 10 μmol/L (± standard deviation)
T1 construct: His tag (from pET-28b(+)); made in house; host or cells: E. coli BL21(DE3), pET-28b(+) plasmid
T1 sequence (P9WKK7 1-428): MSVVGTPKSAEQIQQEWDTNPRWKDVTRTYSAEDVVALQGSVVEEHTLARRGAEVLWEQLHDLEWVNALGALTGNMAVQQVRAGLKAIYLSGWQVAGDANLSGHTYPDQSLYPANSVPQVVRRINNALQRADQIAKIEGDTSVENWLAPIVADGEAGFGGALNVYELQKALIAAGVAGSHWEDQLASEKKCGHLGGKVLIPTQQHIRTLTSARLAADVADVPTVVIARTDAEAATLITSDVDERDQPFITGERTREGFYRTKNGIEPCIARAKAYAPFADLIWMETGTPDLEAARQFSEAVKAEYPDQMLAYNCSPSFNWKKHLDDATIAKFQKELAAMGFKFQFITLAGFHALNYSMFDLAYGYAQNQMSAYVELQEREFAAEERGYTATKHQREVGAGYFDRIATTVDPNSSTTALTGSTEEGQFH

[4] = system: M. kansasii 6509/96 (clinically isolated strain); assay: Antimycobacterial MIC micromethod; assay type: cell-based; conditions: Mycobacterium kansasii, read-out: MIC M. kansasii 6509/96
Mtb. 7357/1988 = assay: microbe, parasite or virus in culture; assay type: cell-based; conditions: Mycobacterium tuberculosis, read-out: MIC Mtb. 7357/1988
Mtb. Praha 1 = assay: microbe, parasite or virus in culture; assay type: cell-based; conditions: Mycobacterium tuberculosis, read-out: MIC Mtb. Praha 1
Mtb. 9449/2006 = assay: microbe, parasite or virus in culture; assay type: cell-based; conditions: Mycobacterium tuberculosis, read-out: MIC Mtb. 9449/2006
[5] = system: Mycobacterium kansasii 235/80; assay: Antimycobacterial MIC micromethod; assay type: cell-based; conditions: read-out: MIC M. kansasii 235/80

Row | SMILES | MIC (Mtb. Praha 131 (XDR-TB); 336 h) [µM] | MIC (Mtb. Praha 131 (XDR-TB); 504 h) [µM] | MIC ([1]; 330/88, 336 h, 14 d) [µM] | MIC ([1]; 330/88, 504 h, 21 d) [µM] | MIC (Mtb. 53/2009; 336 h) [µM] | MIC (Mtb. 53/2009; 504 h) [µM] | MIC (Mtb. 234/2005; 336 h) [µM] | MIC (Mtb. 234/2005; 504 h) [µM] | MIC ([2]; 336 h, 14 d) [µM] | MIC ([2]; 504 h, 21 d) [µM] | IC50 (HepG2 cells) [µM] | inhibition at 10 µM [3] [%] | MIC ([4]; 168 h, 7 d) [µM] | MIC ([4]; 336 h, 14 d) [µM] | MIC ([4]; 504 h, 21 d) [µM] | MIC (Mtb. 7357/1988; 336 h) [µM] | MIC (Mtb. 7357/1988; 504 h) [µM] | MIC (Mtb. Praha 1; 336 h) [µM] | MIC (Mtb. Praha 1; 504 h) [µM] | MIC (Mtb. 9449/2006; 336 h) [µM] | further results
1 | O=C(Oc1cc(Cl)ccc1C(=O)Nc1ccc(Cl)c(Cl)c1)c1ccc(C(F)(F)F)cc1 [1f] | 1 (≈ 0.489 µg/mL) | 2 (≈ 0.977 µg/mL) | 2 (≈ 0.977 µg/mL) | 8 (≈ 3.91 µg/mL) | 2 (≈ 0.977 µg/mL) | 2 (≈ 0.977 µg/mL) | 1 (≈ 0.489 µg/mL) | 2 (≈ 0.977 µg/mL) | 1 (≈ 0.489 µg/mL) | 2 (≈ 0.977 µg/mL) | 4.46 | 17 ± 1.6 | 1 (≈ 0.489 µg/mL) | 2 (≈ 0.977 µg/mL) | 4 (≈ 1.95 µg/mL) | 2 (≈ 0.977 µg/mL) | 2 (≈ 0.977 µg/mL) | 1 (≈ 0.489 µg/mL) | 2 (≈ 0.977 µg/mL) | 2 (≈ 0.977 µg/mL) | MIC (Mtb. 9449/2006; 504 h): 2 µM (≈ 0.977 µg/mL); MIC ([5]; 235/80, 168 h, 7 d): 1 µM (≈ 0.489 µg/mL); MIC ([5]; 235/80, 336 h, 14 d): 2 µM (≈ 0.977 µg/mL); MIC ([5]; 235/80, 504 h, 21 d): 4 µM (≈ 1.95 µg/mL)
2 | O=C(Oc1ccc(Cl)cc1C(=O)Nc1cccc(Br)c1)c1ccc(C(F)(F)F)cc1 [1g] | 1 (≈ 0.499 µg/mL) | 2 (≈ 0.997 µg/mL) | 2 (≈ 0.997 µg/mL) | 8 (≈ 3.99 µg/mL) | 2 (≈ 0.997 µg/mL) | 2 (≈ 0.997 µg/mL) | 1 (≈ 0.499 µg/mL) | 2 (≈ 0.997 µg/mL) | 1 (≈ 0.499 µg/mL) | 2 (≈ 0.997 µg/mL) | 2.63 | ≥ 20 | 1 (≈ 0.499 µg/mL) | 4 (≈ 1.99 µg/mL) | 4 (≈ 1.99 µg/mL) | 2 (≈ 0.997 µg/mL) | 2 (≈ 0.997 µg/mL) | 1 (≈ 0.499 µg/mL) | 2 (≈ 0.997 µg/mL) | 1 (≈ 0.499 µg/mL) | MIC (Mtb. 9449/2006; 504 h): 2 µM (≈ 0.997 µg/mL); MIC ([5]; 235/80, 168 h, 7 d): 2 µM (≈ 0.997 µg/mL); MIC ([5]; 235/80, 336 h, 14 d): 4 µM (≈ 1.99 µg/mL); MIC ([5]; 235/80, 504 h, 21 d): 4 µM (≈ 1.99 µg/mL)
